Test results taken from patent US8796302B2 (priority 2004, dated 2014).

Key:
[1] = system: microglia in neuron-glia cultures; test: OX-42 immunostaining of LPS-induced microglial activation; type: cell-based, rat; settings: for LPS-induced activation of microglia (OX-42): LPS 5 ng/ml, 12 h
Method: Dopaminergic neurons were recognized with the anti-TH antibody and microglia were detected with the OX-42 antibody, which recognizes the CR3 receptor. This was accomplished as follows: 3.7% formaldehyde-fixed cultures were treated with 1% hydrogen peroxide for about 10 minutes followed by sequential incubation with a blocking solution (30 min), primary antibody (overnight, 4° C.), biotinylated secondary antibody (2 hours), and ABC reagents (40 min). The color was developed with 3,3′-diaminobenzidine.
Neuron-glia cultures were prepared and treated with vehicle, LPS (5 ng/ml), or LPS plus DM respectively as in Example 1. Twelve hours later, cultures were immunostained with anti-OX-42 antibody. Images shown are representative of three separate experiments. The immunostaining and morphological analysis was accomplished as in Example 2.
Mesencephalic neuron-glia cultures were pretreated with VPA for 48 h and then treated with 20 ng/ml LPS for 72 h, as described in Example 19. Immunostaining with an antibody against OX-42 was then performed, as described in Example 19.

primary rat microglia = test: Microglia number (CyQUANT) in microglia-enriched cultures; type: cell-based
Method: Primary rat microglia-enriched cultures were used to determine if VPA treatment affected the total number of microglia. Microglia cell number was determined as follows. Primary microglia-enriched cultures were prepared from the whole brains of 1-day-old rats as described previously. After one day in vitro were treated with the indicated concentrations of VPA (0.05, 0.1, 0.2, 0.4, 0.6, 0.8, 1.0, or 1.2 mM) for 48 h, or with 0.6 mM VPA for different times (6, 12, 24 or 48 h). […] The total number of microglia was counted by using the CyQUANT cell proliferation assay kit (Molecular Probes, Inc.).

[2] = system: neurons in neuron-enriched cultures; test: MAP-2 / TH immunostaining morphology of neuron-enriched cultures; type: cell-based, rat; settings: 7 days exposure; media conditioned 48 hours; VPA 0.6 mM
Method: Neuron-enriched cultures were immunostained with MAP-2 for morphological examination. FIGS. 40A-40D show morphological features of neuron-enriched cultures were examined after incubation with vehicle (A), 0.6 mM VPA (B), ACM (C) or ACM-VPA (D) for 7 days and then immunocytostaining with MAP-2 antibody.
The immunostaining was carried out according to the following procedure. Formaldehyde (3.7%)-fixed cultures were treated with 1% hydrogen peroxide (10 min) followed by sequential incubation with blocking solution (30 min), primary antibody (overnight, 4° C.), biotinylated secondary antibody (2 hours), and ABC reagents (40 min) (Vector Laboratories, Burlingame, Calif.). The color development was achieved by the addition of 3,3′-diaminobenzidine. For morphological analysis, the images were recorded with an inverted microscope (Nikon, Tokyo, Japan) connected to a charge-coupled device camera (DAGE-MTI, Michigan City, Ind.) operated with the MetaMorph software (Universal Imaging Corporation, Downingtown, Pa.). For visual counting of TH-IR neurons, nine representative areas per well of the 24-well plate were counted under the microscope at 100× magnification.
To specifically visualize morphological changes in DA neurons, we immunostained neuron-enriched cultures with anti-TH antibody. […]

CD-1 mice given LPS/GalN [3] = test: Liver histology in LPS/GalN endotoxic shock; type: in vivo, mouse
Method: (§1) Serum alanine aminotransferase (ALT) activity was assayed as a marker of hepatocellular death using a commercially available kit (Infinite ALT, Sigma, St. Louis, Mo.). A portion of the liver was fixed in 10% neutral formalin, processed by standard histological techniques, stained with hematoxylin and eosin, and examined for morphological evidence of liver injury.
Sections of the mice livers were stained with hematoxylin and eosin, and photomicrographs were taken at 100× magnification.

TNFα = test: Serum and liver TNFα (ELISA) in LPS/GalN endotoxic shock; type: in vivo, mouse
Method: Blood was collected from the eye while the mice were anesthetized, and then perfused with saline. Perfused liver samples were collected and frozen at −70° C. The blood samples were stored at 4° C. overnight and then centrifuged at 1500×g at 4° C. for 15 min. Serum was collected and stored at −70° C. for ALT, and TNFα ELISA assays. The frozen liver samples were homogenized in 10 mg/ml cold lysis buffer (20 mM Tris, 0.25 M sucrose, 2 mM EDTA, 10 mM EGTA, 1% Triton X-100 and protein cocktail inhibitor), and then centrifuged at 35,000×g for 40 min. The supernatant was then collected for protein assay using BCA Protein Assay Reagent Kit (Prod#23227, PIERCE), and ELISA for TNFα.
The levels of TNFα in the serum and liver were determined as in Example 1.
TNFα, an important factor that plays an important role in sepsis, was studied as a mechanism of the protective effect of DM in LPS/GalN-challenge mice. DM (12.5 mg/kg, […].) was administered to mice, followed by LPS/GalN challenge 30 min later. Serum and liver TNFα level was assessed using ELISA at the indicated time points.

CD-1 mice given LPS/GalN [4] = test: Serum ALT in LPS/GalN endotoxic shock; type: in vivo, mouse; settings: for serum ALT level: 12 hrs after LPS/GalN
Method: Endotoxic shock was induced in the mice by administering a single intraperitoneal dose of lipopolysaccharide/D-(+/−)Glactosomine (Sigma, St. Louis, Mo.) (LPS/GalN) (20 μg/700 mg/kg) in saline. To test whether DM has protective effects on septic shock, varying concentrations (6.25, 12.5 and 25 mg/kg) of DM were injected into the mice subcutaneously 30 min before, and 2, and 4 hr after the injection of LPS/GalN. Control mice received the same amount of saline. At different time points, the animals were killed, and serum and liver samples were collected.
To examine the therapeutic effects of DM, animals were treated with […] DM at 30 min before LPS/GalN injection, and 30, 60 and 120 min after LPS/GalN administration. Serum ALT was measured to evaluate the therapeutic effects of the DM. Survival rate was evaluated within 12 hours after endotoxin administration.
as §1

[5] = DM 12.5 mg/kg 30 min before LPS/GalN, 1.5 and 2 hours

Row | SMILES | LPS-stimulated activation of microglia (OX-42) ([1]; VPA 0.4 or 0.6 mM, 48 h pretreatment, LPS 20 ng/ml 72 h) | microglia activation (OX-42), VPA alone ([1]; VPA alone) | number of microglia, concentration dependence (primary rat microglia; VPA 0.2 mM to 1.2 mM, 48 h) | number of microglia, time course (primary rat microglia; VPA 0.6 mM, 6-48 h, significant effect at 24 h and 48 h) | loss of microglia (primary rat microglia; VPA 0.8 mM, 48 h) | neurite outgrowth (MAP-2 immunostaining) [2] | LPS-induced activation of microglia (OX-42) ([1]; DM 10^−5 M and 10^−14 M) | LPS-induced activation of microglia (OX-42) ([1]; DM 10^−10 M) | liver histology (hematoxylin and eosin) (CD-1 mice given LPS/GalN [3]; 100 pg/kg DM plus LPS/GalN) | liver histology (hematoxylin and eosin) (CD-1 mice given LPS/GalN [3]; 1 μg/kg DM plus LPS/GalN) | liver histology (hematoxylin and eosin) (CD-1 mice given LPS/GalN [3]; 10 mg/kg DM plus LPS/GalN) | liver pathological alterations (necrosis, apoptosis, swelling) (CD-1 mice given LPS/GalN [3]; DM treatments, 12 hours after LPS/GalN) | liver TNFα level (TNFα; [5]) | serum TNFα level (TNFα; [5]) | TNFα level (TNFα; DM 30 min post LPS/GalN (data not shown)) | serum ALT level (CD-1 mice given LPS/GalN [4]; DM 12.5 mg/kg) | serum ALT level (CD-1 mice given LPS/GalN [4]; DM 25 mg/kg) | time-dependent reduction of serum ALT level (CD-1 mice given LPS/GalN [4]; DM 30 min pre-treatment and 30, 60, 120 min post-treatments)
1 | CCCC(CCC)C(=O)O [VPA, Valproic acid] | suppressed | did not show significant effects on microglia activation | robust decrease in microglia number | time-dependently decreased the number of microglia | about 80% | Much smaller effects | – | – | – | – | – | – | – | – | – | – | – | –
2 | COc1ccc2c(c1)[C@@]13CCCC[C@H]1[C@@H](C2)N(C)CC3 [DM, d-3-methoxy-N-methylmorphinan] | – | – | – | – | – | – | prevented the LPS-induced activation of microglia | didn't significantly inhibit microglia activation | cell death is mild | hepatic congestion and cell death are obvious | hepatic congestion and cell death are mild | dramatically ameliorated | significantly decreased TNFα level | significantly decreased TNFα level | suppression of TNFα level was also found | about 25 % of LPS/GalN group | about 25 % of LPS/GalN group | the later the DM treatment, the less protective
